{"source": "PubChem BioAssay AID2060901", "about": "(Molecular Pharmacology Branch, DTP, NCI, 2025);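 also: spheroids exposed to compounds for 7 days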;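 as to viability, T/C: 100% = DMSO vehicle control viability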", "test_system": "422866-222-R5-J1-PDC complex spheroids viability", "assay": "Anticancer human tumor 422866-222-R5-J1-PDC patient-derived pancreatic adenocarcinoma cell line growth inhibition [RAS]", "settings": "for IC50: curve of first compound; for viability, T/C: stronger effect = lower value", "description": "RAS pathway inhibitors in Combinations in Complex Spheroids\nA high-throughput screen of multi-cell type tumor spheroids was designed to identify active combinations of RAS pathway inhibitors and targeted small molecules. Complex spheroids include a stromal component modeled by human endothelial cells (HUVEC) and fibroblasts modeled by human mesenchymal stem cells (MSCs). The concentration ranges selected for each drug and investigational agent were based upon clinically achievable concentrations if the clinical Cmax of the agent was known.\nCompounds. The drugs and investigational agents: abemaciclib (NSC768073), cobimetinib (NSC768068), divarasib (GDC6063, NSC841802), docetaxel (NSC628503), GDC-1971 (RLY-1971, NSC841576), gemcitabine (NSC613327), inavolisib (NSC800729), ipatasertib (NSC767898), KB-0742 (NSC834161), MRTX-1133 (NSC836407), osimertinib (NSC779217), RMC-4630 (NSC839698), RMC-6236 (NSC851965), RMC-6291 (NSC852671), Ro-3306 (NSC812927), sapanisertib (NSC764658), SN-38 (NSC673596), staurosporine (NSC755774), SY5609 (NSC837396), and tovorafenib (DAY101, NSC766906), were obtained from the National Cancer Institute (NCI) Developmental Therapeutics Program Chemical Repository. The FDA-approved anticancer drug set is available from the NCI Developmental Therapeutics Program. […] The stock solutions were prepared in dimethyl sulfoxide (DMSO, Sigma-Aldrich, St. Louis, MO, cat. D2650) at 800-fold the tested concentration and stored at -70 degrees C prior to their use. All drugs and investigational agents were tested over a range starting from a high concentration at or near the clinical Cmax and decreasing in half-log increments. If the clinical Cmax for an agent had not been determined, the highest concentration tested was 10 microM.\nCell Culture. All cells were maintained in an incubator at 37 degrees C and 5% CO2 with 95% humidity. The PDC lines were cultured according to standard operating procedures established by the NCI PDMR. All PDCs were thawed and cultured in Matrigel-coated flasks prepared with a working solution of 1X Ham's F-12 nutrient mix, without supplementation (Invitrogen, Waltham, MA, cat. 11765054), 100 U/mL penicillin-streptomycin (Invitrogen, cat. 15140122), and 2.5% Matrigel (Corning Inc., Corning, NY, cat. 354248) for the first three passages. The 362531-283-R-J2-PDC and 782815-120-R-J1-PDC lines were cultured in 6C/Colon 1B media, which includes advanced DMEM/F-12 (Thermo Fisher Scientific, cat. 12634028), 10 mM HEPES (Thermo Fisher Scientific, cat. 15630080), 1X GlutaMAX supplement (Thermo Fisher Scientific, cat. 35050061), 0.1 mg/mL primocin (InvivoGen, San Diego, CA, cat. ant-pm-2), 10% defined fetal bovine serum, heat inactivated (HyClone Laboratories Inc., Logan, UT, cat. SH30070.03HI), 50% L-WRN conditioned media (ATCC, cat. CRL-3276), 1.25 mM N-Acetyl-L-cysteine (Sigma-Aldrich, cat. A9165), 10 mM nicotinamide (Sigma-Aldrich, cat. N0636), 1X B-27 supplement (Thermo Fisher Scientific, cat. 17504044), 1X N-2 supplement (Thermo Fisher Scientific, cat. 17502048), 50 ng/mL human EGF (Thermo Fisher Scientific, cat. PHG0311), and 10 microM Y-27632 dihydrochloride (Tocris Bioscience, cat. 1254). The K12877-001-R-J1-PDC line was cultured in 6I media, which includes all 6C/Colon 1B media plus 10 ng/mL human FGF-10 (PeproTech, cat. 100-26), 1 ng/mL human FGF-2 (PeproTech, cat. 100-18B), 1 µM prostaglandin E2 (Tocris Bioscience, cat. 2296), […] hydrocortisone (Sigma-Aldrich, cat. H4001), and […] bovine insulin (Sigma-Aldrich, cat. I6634). The K86415-001-R-J1-PDC line was cultured in 6D media, which includes all 6C/Colon 1B media components minus the L-WRN conditioned media. The 485176-168-R4-J1-PDC was cultured in PANC media, which includes all 6C/Colon 1B media plus 100 ng/mL human FGF-10 (PeproTech, cat. 100-26), 500 nM SB-431542 (Selleckchem, cat. S1067), and 10 nM gastrin (Tocris Bioscience, cat. 3006). […]", "data": [{"smiles": "CCC(CC)c1cc(NC2CCC(N)C2)n2nccc2n1", "note": "(configuration not stated) + C=CC(=O)N1CCN(c2nc(OCC3CCCN3C)nc3c(F)c(-c4nc(N)cc(C)c4C(F)(F)F)c(Cl)cc23)C(C)C1", "values": [{"measurement": "IC50", "setting": "second compound 0.00316 µM", "value": "< 31.6", "unit": "nM"}, {"measurement": "IC50", "setting": "second compound 0.01 µM", "value": "< 31.6", "unit": "nM"}, {"measurement": "IC50", "setting": "second compound 0.0316 µM", "value": "< 31.6", "unit": "nM"}, {"measurement": "IC50", "setting": "second compound 0.1 µM", "value": "< 31.6", "unit": "nM"}, {"measurement": "IC50", "setting": "second compound 0.316 µM", "value": "< 31.6", "unit": "nM"}, {"measurement": "IC50", "setting": "second compound 1 µM", "value": "< 31.6", "unit": "nM"}, {"measurement": "viability, T/C", "setting": "second compound 0.00316 µM, first compound 0.0316 µM", "value": 25.9, "unit": "%"}, {"measurement": "viability, T/C", "setting": "second compound 0.00316 µM, first compound 0.1 µM", "value": 36.1, "unit": "%"}, {"measurement": "viability, T/C", "setting": "second compound 0.00316 µM, first compound 0.316 µM", "value": 32.8, "unit": "%"}, {"measurement": "viability, T/C", "setting": "second compound 0.00316 µM, first compound 1 µM", "value": 30.5, "unit": "%"}, {"measurement": "viability, T/C", "setting": "second compound 0.00316 µM, first compound 3.16 µM", "value": 9.42, "unit": "%"}, {"measurement": "viability, T/C", "setting": "second compound 0.00316 µM, first compound 10 µM", "value": 32.1, "unit": "%"}, {"measurement": "viability, T/C", "setting": "second compound 0.01 µM, first compound 0.0316 µM", "value": 36.9, "unit": "%"}, {"measurement": "viability, T/C", "setting": "second compound 0.01 µM, first compound 0.1 µM", "value": 26.8, "unit": "%"}, {"measurement": "viability, T/C", "setting": "second compound 0.01 µM, first compound 0.316 µM", "value": 30.6, "unit": "%"}, {"measurement": "viability, T/C", "setting": "second compound 0.01 µM, first compound 1 µM", "value": 28.9, "unit": "%"}, {"measurement": "viability, T/C", "setting": "second compound 0.01 µM, first compound 3.16 µM", "value": 8.11, "unit": "%"}, {"measurement": "viability, T/C", "setting": "second compound 0.01 µM, first compound 10 µM", "value": 33.1, "unit": "%"}, {"measurement": "viability, T/C", "setting": "second compound 0.0316 µM, first compound 0.0316 µM", "value": 38.8, "unit": "%"}, {"measurement": "viability, T/C", "setting": "second compound 0.0316 µM, first compound 0.1 µM", "value": 34.4, "unit": "%"}, {"measurement": "viability, T/C", "setting": "second compound 0.0316 µM, first compound 0.316 µM", "value": 26.6, "unit": "%"}, {"measurement": "viability, T/C", "setting": "second compound 0.0316 µM, first compound 1 µM", "value": 27.2, "unit": "%"}, {"measurement": "viability, T/C", "setting": "second compound 0.0316 µM, first compound 3.16 µM", "value": 8.27, "unit": "%"}, {"measurement": "viability, T/C", "setting": "second compound 0.0316 µM, first compound 10 µM", "value": 31.5, "unit": "%"}, {"measurement": "viability, T/C", "setting": "second compound 0.1 µM, first compound 0.0316 µM", "value": 19.1, "unit": "%"}, {"measurement": "viability, T/C", "setting": "second compound 0.1 µM, first compound 0.1 µM", "value": 24.1, "unit": "%"}, {"measurement": "viability, T/C", "setting": "second compound 0.1 µM, first compound 0.316 µM", "value": 24.2, "unit": "%"}, {"measurement": "viability, T/C", "setting": "second compound 0.1 µM, first compound 1 µM", "value": 25.6, "unit": "%"}, {"measurement": "viability, T/C", "setting": "second compound 0.1 µM, first compound 3.16 µM", "value": 6.99, "unit": "%"}, {"measurement": "viability, T/C", "setting": "second compound 0.1 µM, first compound 10 µM", "value": 35.6, "unit": "%"}, {"measurement": "viability, T/C", "setting": "second compound 0.316 µM, first compound 0.0316 µM", "value": 19.3, "unit": "%"}, {"measurement": "viability, T/C", "setting": "second compound 0.316 µM, first compound 0.1 µM", "value": 22.3, "unit": "%"}, {"measurement": "viability, T/C", "setting": "second compound 0.316 µM, first compound 0.316 µM", "value": 27.6, "unit": "%"}, {"measurement": "viability, T/C", "setting": "second compound 0.316 µM, first compound 1 µM", "value": 25.3, "unit": "%"}, {"measurement": "viability, T/C", "setting": "second compound 0.316 µM, first compound 3.16 µM", "value": 7.15, "unit": "%"}, {"measurement": "viability, T/C", "setting": "second compound 0.316 µM, first compound 10 µM", "value": 36.3, "unit": "%"}, {"measurement": "viability, T/C", "setting": "second compound 1 µM, first compound 0.0316 µM", "value": 19.6, "unit": "%"}, {"measurement": "viability, T/C", "setting": "second compound 1 µM, first compound 0.1 µM", "value": 22.8, "unit": "%"}, {"measurement": "viability, T/C", "setting": "second compound 1 µM, first compound 0.316 µM", "value": 28.9, "unit": "%"}, {"measurement": "viability, T/C", "setting": "second compound 1 µM, first compound 1 µM", "value": 27.1, "unit": "%"}, {"measurement": "viability, T/C", "setting": "second compound 1 µM, first compound 3.16 µM", "value": 9.75, "unit": "%"}, {"measurement": "viability, T/C", "setting": "second compound 1 µM, first compound 10 µM", "value": 41.1, "unit": "%"}]}]}
